From patent US8361781B2, “Cell aggregation and encapsulation device and method” (Brown University, priority 2006, dated 2013)

Columns and labels:
Type in all cases: cell-based, human
[1] = system: NHFs; assay: Toroid stability of NHFs in micro-molded agarose toroidal aggregation devices
Excerpt: Micro-molded, non-adhesive, cell aggregation devices, each having a plurality of cell aggregation recesses in the shape of either troughs or tori were made following the method described in Example 1. Agarose was employed as the hydrogel material and the cell aggregation recess features were as follows. Troughs were 400 μm wide with bottoms rounded with 200 μm radii. There were 21 rows of troughs of increasing length per gel. Each row had 11 troughs, two of which were 400 μm long, then one each of 600 μm through 1800 μm increasing at 200 μm lengths, then two 2200 μm troughs. The 2200 μm troughs were used for all experiments except those for FIG. 9c, which presents data from all trough lengths. […] A z-stack of images from the 4× objective with 10-50 μm between focal planes was collected at each time point using custom-designed Openlab 4.0.2 automations and images were analyzed using Volocity 3.1 (Improvision). […] The core circumference of tori was measured as a continuous circumferential line located at the estimated midpoint of the perpendicular width of the toroid. Micro-molded agarose toroidal aggregation devices (n=208) made as described in Example 9 were seeded with untreated NHFs and NHFs treated with 100 μM of the cell contraction inhibitor Y-27632 (Calbiochem (EMD Biosciences, Inc.), San Diego, Calif.) and the number of stable toroids with patent centers was measured over time. […]

[2] = system: NHFs; assay: NHF aggregation in honeycomb-structured cell aggregation devices; conditions: NHFs maintained in Y-27632 solution, day 5; untreated NHFs contracted up and off of pegs within 1 day
Protocol: In this experiment, cell aggregation devices were formed from agarose gels as described above, but agarose gels were micromolded with honeycomb-shaped recesses instead of troughs or a tori. The honeycomb-shaped recesses are essentially overlapping, tori-shaped recesses: There are 13 pegs (1 central, 6 concentric around the central peg and 6 outer pegs at 0°, 60°, 120°, 180°, 240°, 300° and 360°) within a network of recesses […] and with bottoms rounded with 200 μm radii. Time lapse microscopy was again used to monitor self-assembly of the NHF cells alone, the H35 cells alone and 50:50 mixtures of NHF cells and H35 cells as described above. The results are shown in FIG. 8, at time 0 (top row), 10 hours post-seeding (middle row) and 20 hours post-seeding (bottom row) with the aggregated NHF cells in column A, the aggregated H35 cells in column B and the aggregated 1:1 mixture of NHF and H35 cells in column C. The aggregated NHF cells quickly thinned, became taught and popped off the outer pegs of the honeycomb shaped substrate. Once freed from the substrate, the honeycomb-shaped aggregates of NHF cells contracted in a uniform manner but maintained its shape. The aggregated H35 cells thinned more slowly, maintaining contact with the outer pegs and staying within the molds. […]

[3] = system: NHF cells; assay: Rod length change kinetics of NHF aggregates in 2.2 mm trough features; conditions: NHF cells treated with 50 μM and 200 μM Y-27632, 2.2 mm troughs, FIG. 10
Excerpt: Micro-molded, non-adhesive, cell aggregation devices, each having a plurality of cell aggregation recesses in the shape of either troughs or tori were made following the method described in Example 1. Agarose was employed as the hydrogel material and the cell aggregation recess features were as follows. Troughs were 400 μm wide with bottoms rounded with 200 μm radii. There were 21 rows of troughs of increasing length per gel. Each row had 11 troughs, two of which were 400 μm long, then one each of 600 μm through 1800 μm increasing at 200 μm lengths, then two 2200 μm troughs. The 2200 μm troughs were used for all experiments except those for FIG. 9c, which presents data from all trough lengths. […] A z-stack of images from the 4× objective with 10-50 μm between focal planes was collected at each time point using custom-designed Openlab 4.0.2 automations and images were analyzed using Volocity 3.1 (Improvision). […] The core circumference of tori was measured as a continuous circumferential line located at the estimated midpoint of the perpendicular width of the toroid. […] Next, aggregation devices with trough features 2.2 mm in length were made as described in previous examples and seeded with NHF cells, NHF cells in serum-free medium, NHF cells treated with 50 μM of Y-27632 and NHF cells treated with 200 μM of Y-27632 and the lengths of resulting rod shaped aggregates were measured. […]

[4] = system: NHFs; assay: Rod aggregation kinetics in 2.2 mm troughs after removal of drug (time-lapse); conditions: 100 μM Y-27632 initially, removed at 1.5 hrs and replaced with normal medium, FIG. 11
Protocol: Excess medium was aspirated from the wells and 200 μL of a single cell suspension was pipetted into the aggregation recess of each gel. Medium was added to the wells after a 1.5 hour incubation period wherein cells settled into the aggregation recesses and commenced the self-assembly process. Medium was exchanged every other day. […] A z-stack of images from the 4× objective with 10-50 μm between focal planes was collected at each time point using custom-designed Openlab 4.0.2 automations and images were analyzed using Volocity 3.1 (Improvision). Bright-field and fluorescent images were obtained using an Olympus IX70 microscope equipped with an AxioCam MRc digital camera. For the time-lapse experiments, medium was carefully added 20-30 minutes post seeding, before the devices were transferred to the time lapse microscope. Measurements of morphological changes were performed with ImageJ data analysis software. The length of a rod was the length of a line drawn from end to end of the structure (long-axis length). The core circumference of tori was measured as a continuous circumferential line located at the estimated midpoint of the perpendicular width of the toroid. Gels with trough features 2.2 mm in length were then seeded with NHFs or with NHFs treated initially with 100 μM Y-27632 and imaged every 10 minutes. At 1.5 hrs, the Y-27632 solution was removed and replaced with normal medium. […]

[5] = system: NHFs; assay: Viability staining of treated NHF honeycombs; conditions: NHF honeycombs maintained in Y-27632 solution, day 5
Protocol: NHF cells alone, H35 cells alone, and 50:50 mixtures of NHF and H35 cells were seeded into the trough aggregation devices and the tori aggregation devices as described in Example 2 and allowed to aggregate. Briefly, NHF cells derived from neonatal foreskins and H35 rat hepatoma cells were expanded in DMEM supplemented with 10% fetal bovine serum (FBS) and 1% penicillin/streptomycin solution. NHF cells were incubated in a 10% CO2 atmosphere and H35 cells were incubated in 5% CO2. The mixture experiments were a 50:50 mix of both cell types and were maintained in a 5% CO2 atmosphere. The cells were stained with fluorescent dyes (NHF cells with CellTracker Red CMTPX and H35 cells with CellTracker Green CMFDA from Invitrogen) to allow their aggregation in the mixed populations to be followed and their aggregated position visualized. Cells used in experiments were between passage 3 and passage 9. Cell viability was determined using the LIVE/DEAD Viability/Cytotoxicity Kit (Invitrogen) in accordance with the manufacturer's instructions.
Lastly, NHFs were seeded onto honeycomb-structured cell aggregation devices made as described in Example 9B and maintained in Y-27632 solution.

C[C@@H](N)[C@H]1CC[C@H](C(=O)Nc2ccncc2)CC1 [Y-27632]
treated NHFs still having patent centers (stable toroids) ([1]; 100 μM Y-27632, day 1, n=104, all untreated NHFs had progressed to spheroids): 90% | treated NHFs still having patent centers (stable toroids) ([1]; 100 μM Y-27632, day 2, n=104): 5% | maintenance of honeycomb structure [2]: remained intact in the honeycomb-shaped recesses at day 5 | effect on length change kinetics of rod shaped aggregates [3]: dramatically slowed length change kinetics in rods | aggregation kinetics after removal of the drug [4]: progressing with similar kinetics to those of untreated NHFs | cell viability (viability staining) [5]: majority of the cells were living at day 5
